Values quoted from earlier work, collected in patent US5583105A, “Oral pharmaceutical preparation” (Biogal Gyogyszerguar Rt, priority 1994, dated 1996).

Details: in water

- concentration of aqueous solution formed: 6.5%
Structure (SMILES): CCOC(=O)CC(O)(CC(=O)OCC)C(=O)OCC [triethylcitrate, triethyl-citrate]
